Assay results from patent US10815226B2, “Heteroaryl compounds as inhibitors of necrosis, composition and application thereof” (ACCRO BIOSCIENCE INC., priority 2016, dated 2020).

What was measured:
[1] = test system: HT29 cells; assay: HT29 cell necroptosis assay (TNF-α/Smac mimetic/z-VAD induced necrosis, viability); assay type: cell-based, human; conditions: 10 μM test compound pretreated one hour, TNF-α (40 ng/mL), Smacmimetic (100 nM), z-VAD (20 μM) for 48 hours
Description: Biological in Vitro HT29 Cell Assay.
(§1) The efficacies of RIP1 inhibitors were tested in vitro using human colon cancer TH29 cells in a necroptosis assay. For the assay, Cells were added to 96-well plates and then 10 μM of the test compound was pretreated for one hour. Then the cells were treated with TNF-α (40 ng/mL), Smacmimetic (100 nM) and z-VAD (20 μM) for 48 hours, and the viability was quantified. DMSO pretreatment group was negative control, Nec-1 pretreatment group was positive control.

[2] = test system: L929 cells; assay: L929 cell necroptosis assay (same protocol as the HT29 cell assay); assay type: cell-based, mouse; conditions: for L929 Inhibition (10 μM): 10 μM test compound, protocol as HT29 assay; for IC50: Mus musculus
Description: as §1, with “For the assay, Cells were added to 96-well plates and then 10 μM of the test compound was pretreated for one hour.” left out
Biological In Vitro L929 Cell Assay.
Mouse L-cells NCTC 929 (L929) were acquired from ATCC (cat. no. ATCC CCL-1) and banked in liquid nitrogen. The assay protocol was the same as described for the HT29 cell assay.

[3] = test system: HT29 cells; assay: HT29 cell necroptosis assay (TNF-α/Smac mimetic/z-VAD induced necrosis, viability); assay type: cell-based, human; conditions: TNF-α/Smacmimetic/z-VAD induced necrosis
[4] = Homo sapiens, HT-29, HT29 cells, values in nM
[5] = Homo sapiens, HT-29, HT29 cells, values given in μM

| SMILES | HT29 Inhibition (10 μM) [1] | L929 Inhibition (10 μM) [2] | IC50 [3, 4] | also measured |
| --- | --- | --- | --- | --- |
| CC(=O)Nc1nc2ccc(-c3cncc(NC(=O)Cc4ccc(F)cc4)c3)cc2s1 [Compound A18] | 24% | 51% |  |  |
| CC(=O)Nc1nc2ccc(-c3ccc(C)c(NC(=O)OC4CCCCC4)n3)cc2s1 [Compound A56, Cyclohexyl (6-(2-acetamidobenzo[d]thiazol-6-yl)-3-methylpyridin-2-yl) Carbamate] |  |  | 700 nM | IC50 ([2]; values in nM): 500 nM |
| CC(=O)Nc1nc2ccc(-c3cccc(NC(=O)Cc4ccccc4Cl)c3)cc2s1 [Compound A28] | 34% | 45% |  |  |
| CC(=O)Nc1nc2ccc(-c3cnc(C)c(NC(=O)Cc4ccccc4)c3)cc2s1 [Compound A23] | 104% | 42% | 670 nM |  |
| CC(=O)Nc1nc2ccc(-c3cc(NC(=O)Cc4ccccc4Cl)ccn3)cc2s1 [Compound A29] | 81% | 45% |  |  |
| Nc1nc2ccc(-c3cnc(Cl)c(NC(=O)c4cccc(F)c4)c3)cc2s1 [Compound A1] | 112% | 48% |  |  |
| CC(=O)Nc1nc2ccc(-c3cnc(Cl)c(NC(=O)c4cccnc4)c3)cc2s1 [Compound A3] | 7% | 1% |  |  |
| CC(=O)Nc1nc2ccc(-c3cncc(NC(=O)Cc4ccccc4Cl)c3)cc2s1 [Compound A13] | 80% | 94% |  | IC50 [3, 5]: 5240 nM |
| CC(=O)Nc1nc2ccc(-c3cnc(C)c(NC(=O)CC(C)(C)C)c3)cc2s1 [Compound A45] |  |  | 430 nM | IC50 ([2]; values given in μM): 1010 nM |
| CC(=O)Nc1nc2ccc(-c3cncc(NC(=O)Cc4cccc(Cl)c4)c3)cc2s1 [Compound A14] | 71% | 95% |  |  |
| CCc1ncc(-c2ccc3nc(NC(C)=O)sc3c2)cc1NC(=O)OC1CCCCC1 [Compound A54] |  |  | 75 nM | IC50 ([2]; values in nM): 200 nM |
| CC(=O)Nc1nc2ccc(-c3cnc(C)c(NC(=O)OC4CCCCC4)c3)cc2s1 [Compound A36, Cyclohexyl (5-(2-acetamidobenzo[d]thiazol-6-yl)-2-methylpyridin-3-yl)carbamate] |  |  | 30 nM | IC50 ([2]; values in nM): 5 nM |
| CC(=O)Nc1nc2ccc(-c3cnc(Cl)c(NC(=O)Cc4ccccc4Cl)c3)cc2s1 [Compound A24] | 113% | 42% | 527 nM |  |
| CC(=O)Nc1nc2ccc(-c3cncc(NC(=O)Cc4ccccc4F)c3)cc2s1 [Compound A16] | 36% | 86% |  |  |
| CC(=O)Nc1nc2ccc(-c3cnc(Cl)c(NC(=O)c4ccncc4)c3)cc2s1 [Compound A4] | 25% | 1% |  |  |
| CC(=O)Nc1nc2ccc(-c3cnc(C)c(NC(=O)CC4CCCCC4)c3)cc2s1 [Compound A25] | 68% |  | 255 nM |  |
| CC(=O)Nc1nc2ccc(-c3cncc(NC(=O)c4cccc(F)c4)c3)cc2s1 [Compound A5] | 50% | 90% |  |  |
| CC(=O)Nc1nc2ccc(-c3cnc(C)c(NC(=O)OC4CCC(=O)CC4)c3)cc2s1 [Compound A78] |  |  | 867 nM |  |
| Cc1ncc(-c2ccc3nc(NC(=O)C4CC4)cn3c2)cc1NC(=O)OC1CCCCC1 [Compound A81, Cyclohexyl (5-(2-(cyclopropanecarboxamido)imidazo[1,2-a]pyridin-6-yl)-2-methylpyridin-3-yl)carbamate] |  |  | 9 nM |  |
| CC(=O)Nc1nc2cnc(-c3cnc(C)c(NC(=O)OC4CCCCC4)c3)cc2s1 [Compound A64] |  |  |  | IC50 [3, 5]: 1000 nM |
| CCC(=O)Nc1nc2ccc(-c3cnc(C)c(NC(=O)OC4CCCCC4)c3)cc2s1 [Compound A60] |  |  | 53 nM |  |
| CC(=O)Nc1nc2ccc(-c3ccnc(NC(=O)Cc4ccccc4Cl)c3)cc2s1 [Compound A30] | 38% | 45% |  |  |
| CC(=O)Nc1nc2ccc(-c3cncc(NC(=O)Cc4ccccc4)c3)cc2s1 [Compound A12] | 11% | 80% |  | IC50 [3, 5]: 2560 nM |
| CC(=O)Nc1nc2ccc(-c3cnc(C)c(NC(=O)OC4CCCC4)c3)cc2s1 [Compound A47] |  |  | 124 nM |  |
| Cc1ncc(-c2ccc3nc(NC(=O)C4CC4)sc3c2)cc1NC(=O)OC1CCCCC1 [Compound A61] |  |  | 1.2 nM | IC50 ([2]; values in nM): 3 nM |
| CCOC(=O)Nc1nc2ccc(-c3cnc(C)c(NC(=O)OC4CCCCC4)c3)cc2s1 [Compound A62] |  |  | 63 nM |  |

| SMILES | HT29 Inhibition (10 μM) [1] | L929 Inhibition (10 μM) [2] | IC50 [3, 4] | also measured |
| --- | --- | --- | --- | --- |
| CC(=O)Nc1cn2cc(-c3cnc(C)c(NC(=O)CC4CCCCC4)c3)ccc2n1 [Compound A46] |  |  | 900 nM | IC50 ([2]; values given in μM): 2480 nM |
| CC(=O)Nc1nc2ccc(-c3cnc(C)c(NC(=O)CN4CCCCC4)c3)cc2s1 [Compound A40] | 79% |  |  | IC50 [3, 5]: 1100 nM |
| CC(=O)Nc1nc2ccc(-c3cnc(F)c(NC(=O)OC4CCCCC4)c3)cc2s1 [Compound A84] |  |  |  | IC50 ([3]; HT29 cells, values in nM): 31 nM |
| CC(=O)Nc1nc2ccc(-c3cnc(C)c(NC(=O)CC(C)C)c3)cc2s1 [Compound A44] | 47% |  |  | IC50 [3, 5]: 2690 nM |
| CC(=O)Nc1nc2ccc(-c3cnc(C)c(NC(=O)OC4CCCCC4)c3)nc2s1 [Compound A57] |  |  | 92 nM | IC50 ([2]; values in nM): 30 nM |
| CC(=O)Nc1nc2ccc(-c3cnc(Cl)c(NC(=O)Cc4ccc(OCCOCCNC(=O)OC(C)(C)C)cc4)c3)cc2s1 [Compound A26] | 30% | 42% |  |  |
| CCC(CC)OC(=O)Nc1cc(-c2ccc3nc(NC(C)=O)sc3c2)cnc1C [Compound A89] |  |  | 51 nM |  |
| Cc1ncc(-c2ccc3nc(NC(=O)C4CC4)cn3n2)cc1NC(=O)OC1CCCCC1 [Compound A67] |  |  | 31 nM |  |
| CC(=O)Nc1nc2ccc(-c3cnc(C)c(NC(=O)OC(C)(C)C)c3)cc2s1 [Compound A48] |  |  | 500 nM |  |
| Cc1ncc(-c2ccc3nc(NC(=O)CCCCCNC(=O)OC(C)(C)C)sc3c2)cc1NC(=O)Cc1ccccc1 [Compound A31] | 87% |  |  | IC50 [3, 5]: 3400 nM |
| CC(=O)Nc1nc2cc(-c3cnc(C)c(NC(=O)OC4CCCCC4)c3)ccn2n1 [Compound A58] |  |  |  | IC50 [3, 5]: 1000 nM; IC50 ([2]; values given in μM): 1000 nM |
| CC(=O)Nc1nc2ccc(-c3cc(NC(=O)OC4CCCCC4)c(C)nn3)cc2s1 [Compound A66, Cyclohexyl 6-(2-acetamidobenzo[d]thiazol-6-yl)-3-methylpyridazin-4-ylcarbamate] |  |  | 247 nM |  |
| CC(=O)Nc1nc2ccc(-c3cnc(C)c(NC(=O)O[C@H]4CC[C@@H](O)CC4)c3)cc2s1 [Compound A80] |  |  | 653 nM |  |
| CC(=O)Nc1nc2ccc(-c3cnc(Cl)c(NC(=O)Cc4ccccc4)c3)cc2s1 [Compound A21] | 28% | 42% |  | IC50 [3, 5]: 16500 nM |
| CC(=O)Nc1nc2ccc(-c3cc(NC(=O)Cc4ccccc4)ccn3)cc2s1 [Compound A19] | 1% | 22% |  |  |
| CC(=O)Nc1nc2ccc(-c3cnc(C)c(NC(=O)OC4CCC5(CC4)CC5)c3)cc2s1 [Compound A95] |  |  | 53 nM |  |
| COc1ncc(-c2ccc3nc(NC(C)=O)sc3c2)cc1NC(=O)Cc1ccccc1 [Compound A22] | 66% | 42% |  |  |
| CC(=O)Nc1nc2ccc(-c3cnc(C)c(NC(=O)CC4CCCC4)c3)cc2s1 [Compound A43] | 78% |  | 431 nM |  |
| CC(=O)Nc1nc2ccc(-c3cccc(NC(=O)Cc4ccccc4)c3)cc2s1 [Compound A20] | 11% | 69% |  |  |
| Cc1ncc(-c2ccc3nc(NC(=O)C4CC4)sc3c2)cc1NC(=O)OC1CCCOC1 (stereo not drawn) [Compound A68] |  |  | 31 nM |  |
| CC(=O)Nc1cn2cc(-c3cnc(C)c(NC(=O)OC4CCCCC4)c3)ccc2n1 [Compound A50, Cyclohexyl (5-(2-acetamidoimidazo[1,2-a]pyridin-6-yl)-2-methylpyridin-3-yl)carbamate] |  |  | 97 nM |  |
| CC(=O)Nc1nc2ccc(-c3cnc(Cl)c(NC(=O)Cc4ccc(OCCOCCNC(=O)CCCCCNC(=O)CCCC[C@@H]5SC[C@@H]6NC(=O)N[C@@H]65)cc4)c3)cc2s1 [Compound A27] | 48% | 42% |  |  |
| CC(=O)Nc1nc2ccc(-c3cncc(NC(=O)Cc4ccc(Cl)cc4)c3)cc2s1 [Compound A15] | 95% | 87% |  |  |
| CC(=O)Nc1nc2ccc(-c3cnc(C)c(NC(=O)OC(C)C4CC4)c3)cc2s1 (stereo not drawn) [Compound A88] |  |  | 40 nM |  |
| CC(=O)Nc1nc2ccc(-c3cnc(F)c(NC(=O)OC4CCCCC4)c3)cc2s1 [Compound A90] |  |  |  | IC50 ([3]; HT29 cells, values in nM): 300 nM |
